Measured values taken from ChEMBL document CHEMBL6153141, “Design, Synthesis, and Mechanism Study of Novel BMX Inhibitors Based on the Core of 1,3,5-Triazin-2-Amine for the Treatment of Gastric Carcinoma” (J Med Chem, 2025).
Calls of active or inactive are those of the source. No cut-off for these calls is given here.

What was measured:
[1] = target: Tyrosine-protein kinase ITK/TSK (Homo sapiens, UniProt Q08881); test: Inhibition of ITK (unknown origin) in presence of ATP at Km concentration
HGC-27 [2] = test: Effect on mTOR expression in human HGC-27 cells at 5 to 15 uM incubated for 48 hrs by Western blot analysis; assay type: functional, cell-based; conditions: dose 5-15 µM
[3] = Oral bioavailability in Sprague-Dawley rat at 5 mg/kg measured after 24 hrs by LC-MS/MS analysis; assay type: ADME, organism-based; conditions: in vivo
MGC-803 [4] = test: cells; conditions: Homo sapiens, MGC-803, 48 h
Description: Antiproliferative activity against human MGC-803 cells assessed as inhibition of cell viability incubated for 48 hrs by MTT assay

HGC-27 [5] = test: Inhibition of AKT-mTOR signaling in human HGC-27 cells assessed as decrease in phosphorylated AKT expression at 5 to 15 uM incubated for 48 hrs by Western blot analysis; assay type: cell-based; conditions: dose 5-15 µM
[6] = target: Cytoplasmic tyrosine-protein kinase BMX (Homo sapiens) (UniProt P51813); test: Irreversible inhibition of BMX in human HGC-27 cells at 15 uM preincubated for 48 hrs followed by compound washout and measured within 6 hrs by Western blot analysis; assay type: cell-based
Chain of Cytoplasmic tyrosine-protein kinase BMX (Homo sapiens) (P51813 whole entry): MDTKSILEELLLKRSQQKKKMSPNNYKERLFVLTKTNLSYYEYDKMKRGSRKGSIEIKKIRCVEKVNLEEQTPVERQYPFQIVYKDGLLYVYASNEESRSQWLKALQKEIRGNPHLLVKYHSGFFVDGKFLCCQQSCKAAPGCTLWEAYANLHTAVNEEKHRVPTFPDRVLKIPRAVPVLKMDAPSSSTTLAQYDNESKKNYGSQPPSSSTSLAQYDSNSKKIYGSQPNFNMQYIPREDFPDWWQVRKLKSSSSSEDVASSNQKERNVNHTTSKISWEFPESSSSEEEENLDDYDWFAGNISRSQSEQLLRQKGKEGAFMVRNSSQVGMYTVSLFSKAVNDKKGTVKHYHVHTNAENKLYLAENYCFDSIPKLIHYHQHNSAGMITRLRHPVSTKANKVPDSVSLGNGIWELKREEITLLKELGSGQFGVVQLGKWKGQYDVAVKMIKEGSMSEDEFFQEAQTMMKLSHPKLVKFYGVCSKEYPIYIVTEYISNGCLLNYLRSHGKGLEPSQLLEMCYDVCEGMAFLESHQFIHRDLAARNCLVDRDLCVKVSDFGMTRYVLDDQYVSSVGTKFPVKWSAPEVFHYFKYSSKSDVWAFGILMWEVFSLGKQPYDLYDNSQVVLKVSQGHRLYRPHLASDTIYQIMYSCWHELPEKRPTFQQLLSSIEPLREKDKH

MGC-803 [7] = test: Inhibition of AKT-mTOR signaling in human […] cells assessed as decrease in phosphorylated AKT expression at 10 to 20 uM incubated for 48 hrs by Western blot analysis; assay type: cell-based; conditions: dose 10-20 µM
HepG2 = test: Anticancer activity against human HepG2 cells assessed as inhibition of cell proliferation incubated for 72 hrs by MTT assay; assay type: functional, cell-based; conditions: HepG2, 72 h
[8] = target: Receptor tyrosine-protein kinase erbB-4 (Homo sapiens, UniProt Q15303); test: Inhibition of HER4 (unknown origin) in presence of ATP at Km concentration
Chain of Receptor tyrosine-protein kinase erbB-4 (Q15303 whole entry): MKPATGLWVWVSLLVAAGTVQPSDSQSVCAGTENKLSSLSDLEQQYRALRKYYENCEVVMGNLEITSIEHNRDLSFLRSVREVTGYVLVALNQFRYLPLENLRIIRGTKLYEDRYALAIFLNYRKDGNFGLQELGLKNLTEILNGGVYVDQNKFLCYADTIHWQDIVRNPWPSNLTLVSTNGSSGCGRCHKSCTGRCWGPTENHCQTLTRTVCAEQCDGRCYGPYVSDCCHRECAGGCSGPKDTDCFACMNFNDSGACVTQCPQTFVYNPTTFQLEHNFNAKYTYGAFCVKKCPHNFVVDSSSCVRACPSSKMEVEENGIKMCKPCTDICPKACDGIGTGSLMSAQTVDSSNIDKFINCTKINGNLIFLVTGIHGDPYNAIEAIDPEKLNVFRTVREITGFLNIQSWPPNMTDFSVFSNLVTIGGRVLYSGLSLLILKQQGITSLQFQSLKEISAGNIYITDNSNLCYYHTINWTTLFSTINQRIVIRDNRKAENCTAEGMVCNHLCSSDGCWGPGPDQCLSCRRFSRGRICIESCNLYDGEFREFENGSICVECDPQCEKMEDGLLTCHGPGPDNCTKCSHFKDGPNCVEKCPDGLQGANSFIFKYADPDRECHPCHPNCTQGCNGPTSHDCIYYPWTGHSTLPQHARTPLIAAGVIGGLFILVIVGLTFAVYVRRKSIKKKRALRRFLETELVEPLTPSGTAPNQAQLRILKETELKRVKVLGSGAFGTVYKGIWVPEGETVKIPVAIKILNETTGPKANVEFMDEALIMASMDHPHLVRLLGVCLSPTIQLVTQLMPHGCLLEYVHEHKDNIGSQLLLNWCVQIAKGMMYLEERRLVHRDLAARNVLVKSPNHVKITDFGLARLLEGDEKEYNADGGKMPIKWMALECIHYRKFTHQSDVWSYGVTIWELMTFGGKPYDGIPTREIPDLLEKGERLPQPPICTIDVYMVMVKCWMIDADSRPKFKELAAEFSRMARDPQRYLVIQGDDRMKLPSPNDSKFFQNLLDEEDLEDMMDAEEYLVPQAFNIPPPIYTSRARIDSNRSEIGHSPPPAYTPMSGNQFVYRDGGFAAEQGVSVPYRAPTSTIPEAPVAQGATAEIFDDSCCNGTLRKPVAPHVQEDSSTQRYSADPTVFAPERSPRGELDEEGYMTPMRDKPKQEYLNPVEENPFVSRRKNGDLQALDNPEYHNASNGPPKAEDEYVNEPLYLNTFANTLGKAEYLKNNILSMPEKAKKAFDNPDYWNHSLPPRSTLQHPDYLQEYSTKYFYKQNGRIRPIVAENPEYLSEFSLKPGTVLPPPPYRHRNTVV

HGC-27 [9] = test: Induction of apoptosis in LC3B knockout human HGC-27 cells assessed as increase in cleaved caspase 9 level at 15 uM by Western blot analysis; assay type: functional, cell-based
[10] = Cytotoxicity against human L02 cells assessed as inhibition of cell proliferation incubated for 72 hrs by MTT assay; assay type: toxicity, cell-based
DU-145 = test: cells; conditions: Homo sapiens, DU-145, 72 h
Description: Anticancer activity against human DU-145 cells assessed as inhibition of cell proliferation incubated for 72 hrs by MTT assay

Cytochrome P450 2C9 = Cytochrome P450 2C9 (Homo sapiens, UniProt P11712); test: Inhibition of CYP2C9 in human liver microsomes using tolbutamide as substrate preincubated for 5 mins followed by NADPH addition and measured after 10 mins by LC-MS/MS analysis; assay type: ADME, Microsome
Chain of Cytochrome P450 2C9 (P11712 whole entry): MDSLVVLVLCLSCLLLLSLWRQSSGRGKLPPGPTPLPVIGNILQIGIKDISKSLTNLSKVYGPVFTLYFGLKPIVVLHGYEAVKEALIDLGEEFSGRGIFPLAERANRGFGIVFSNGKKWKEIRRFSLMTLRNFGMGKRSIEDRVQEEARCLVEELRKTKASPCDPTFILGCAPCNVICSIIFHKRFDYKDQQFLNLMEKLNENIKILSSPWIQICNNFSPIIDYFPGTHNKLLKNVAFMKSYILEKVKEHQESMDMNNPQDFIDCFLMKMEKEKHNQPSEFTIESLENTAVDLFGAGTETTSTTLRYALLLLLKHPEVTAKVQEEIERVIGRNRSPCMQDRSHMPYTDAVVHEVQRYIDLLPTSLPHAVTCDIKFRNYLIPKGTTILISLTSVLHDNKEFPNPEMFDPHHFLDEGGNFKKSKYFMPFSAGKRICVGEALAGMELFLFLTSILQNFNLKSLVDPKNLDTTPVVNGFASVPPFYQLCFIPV

MGC-803 [11] = test: Anti-invasive activity in human MGC-803 cells assessed as decrease in invasion ability at 10 to 20 uM incubated for 48 hrs by transwell assay; assay type: functional, cell-based; conditions: dose 10-20 µM
HONE1 cell line = test: Anticancer activity against human HONE1 cell line assessed as inhibition of cell proliferation incubated for 72 hrs by MTT assay; assay type: functional, cell-based; conditions: HONE1, 72 h
MGC-803 [12] = test: Induction of apoptosis in human MGC-803 cells assessed as increase in cleaved PARP level incubated for 48 hrs by Western blot analysis; assay type: functional, cell-based; conditions: dose 10-20 µM
HGC-27 [13] = test: Induction of apoptosis in human HGC-27 cells assessed as increase in cleaved caspase 3 level incubated for 48 hrs by Western blot analysis; assay type: functional, cell-based; conditions: dose 5-15 µM
MGC-803 [14] = test: Induction of apoptosis in LC3B knockout human MGC-803 cells assessed as increase in cleaved PARP level at 20 uM by Western blot analysis; assay type: functional, cell-based
HGC-27 [15] = test: Downregulation of BMX protein expression in human HGC-27 cells incubated for 48 hrs by Western blot analysis; assay type: functional, cell-based; conditions: dose 5-15 µM
MGC-803 [16] = test: Antiproliferative activity against human MGC-803 cells assessed as inhibition of cell viability incubated for 24 to 72 hrs by MTT assay; assay type: functional, cell-based; conditions: dose <= 50.0 µM, time 24-72 hrs
[17] = target: Tyrosine-protein kinase BTK (Homo sapiens, UniProt Q06187); test: Inhibition of BTK (unknown origin) in presence of ATP at Km concentration
Chain of Tyrosine-protein kinase BTK (Q06187 whole entry): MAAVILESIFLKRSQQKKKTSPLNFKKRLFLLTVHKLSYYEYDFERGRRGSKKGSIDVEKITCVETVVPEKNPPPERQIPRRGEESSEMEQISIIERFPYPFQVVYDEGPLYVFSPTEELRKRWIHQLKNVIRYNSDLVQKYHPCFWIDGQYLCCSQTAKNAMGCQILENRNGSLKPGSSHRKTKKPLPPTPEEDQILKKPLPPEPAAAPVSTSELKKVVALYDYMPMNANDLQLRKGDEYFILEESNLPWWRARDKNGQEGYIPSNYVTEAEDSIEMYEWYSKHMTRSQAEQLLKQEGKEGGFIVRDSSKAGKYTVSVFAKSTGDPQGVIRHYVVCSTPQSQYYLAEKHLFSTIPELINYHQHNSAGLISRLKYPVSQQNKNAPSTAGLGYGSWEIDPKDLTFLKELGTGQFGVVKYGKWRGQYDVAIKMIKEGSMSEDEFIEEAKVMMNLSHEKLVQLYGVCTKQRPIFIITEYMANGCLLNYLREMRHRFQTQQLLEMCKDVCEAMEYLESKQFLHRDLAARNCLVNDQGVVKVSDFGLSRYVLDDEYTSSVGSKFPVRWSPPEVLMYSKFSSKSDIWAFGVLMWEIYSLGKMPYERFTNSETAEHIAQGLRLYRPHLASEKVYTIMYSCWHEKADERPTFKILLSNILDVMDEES

HGC-27 [18] = test: Induction of apoptosis in LC3B knockout human HGC-27 cells assessed as increase in cleaved PARP level at 15 uM by Western blot analysis; assay type: functional, cell-based
HGC-27 [19] = test: Antitumor activity against human HGC-27 cells xenografted in female BALB/c nude mouse model assessed as reduction in tumor growth at 30 mg/kg/day, ip administered for 21 days relative to control; assay type: functional; set-up: scale not given: the % may be the effect or the level left; conditions: time 21 day
AGS = test: Anticancer activity against human AGS cells assessed as inhibition of cell proliferation incubated for 72 hrs by MTT assay; assay type: functional, cell-based
HGC-27 [20] = test: Anti-invasive activity in human HGC-27 cells assessed as decrease in invasion ability at 5 to 15 uM incubated for 48 hrs by transwell assay; assay type: functional, cell-based; conditions: dose 5-15 µM
[21] = Tmax in Sprague-Dawley rat at 5 mg/kg, po or 5 mg/kg, iv measured after 24 hrs by LC-MS/MS analysis; assay type: ADME, organism-based; conditions: in vivo
HGC-27 [22] = test: Induction of autophagy in human HGC-27 cells assessed as increase in LC3B protein expression incubated for 48 hrs by Western blot analysis; assay type: functional, cell-based; conditions: dose 5-15 µM
[23] = Toxicity in female BALB/c nude mouse model xenografted with human HGC-27 cells assessed as effect on heart at 30 mg/kg, ip administered for 21 days by H and E staining based analysis; assay type: organism-based; conditions: in vivo, 504 h, time 21 day
NCI-H460 = test: cells; conditions: Homo sapiens, NCI-H460, 72 h
Description: Anticancer activity against human NCI-H460 cells assessed as inhibition of cell proliferation incubated for 72 hrs by MTT assay

[24] = Toxicity in female BALB/c nude mouse model xenografted with human HGC-27 cells assessed as effect on liver at 30 mg/kg, ip administered for 21 days by H and E staining based analysis; assay type: organism-based; conditions: in vivo, 504 h, time 21 day
HGC-27 [25] = test: Anticancer activity against human HGC-27 cells assessed as inhibition of cell proliferation incubated for 72 hrs by MTT assay; assay type: functional, cell-based; conditions: HGC-27, 72 h
MGC-803 [26] = test: Induction of apoptosis in human MGC-803 cells assessed as increase in apoptotic cells at 10 to 20 uM incubated for 48 hrs by Annexin V-FITC/PI staining based flow cytometric analysis; assay type: functional, cell-based; conditions: dose 10-20 µM
[27] = Half-life in Sprague-Dawley rat at 5 mg/kg, po or 5 mg/kg, iv measured after 24 hrs by LC-MS/MS analysis; assay type: ADME, organism-based; conditions: in vivo
MGC-803 [28] = test: Induction of autophagy in human MGC-803 cells assessed as increase in LC3B protein expression incubated for 48 hrs by Western blot analysis; assay type: functional, cell-based; conditions: dose 10-20 µM
[29] = target: Epidermal growth factor receptor (Homo sapiens, UniProt P00533, T790M); test: Inhibition of EGFR T790M (unknown origin) in presence of ATP at Km concentration
[30] = target: Tyrosine-protein kinase JAK3 (Homo sapiens, UniProt P52333); test: Inhibition of JAK3 (unknown origin) in presence of ATP at Km concentration
Chain of Tyrosine-protein kinase JAK3 (P52333 whole entry): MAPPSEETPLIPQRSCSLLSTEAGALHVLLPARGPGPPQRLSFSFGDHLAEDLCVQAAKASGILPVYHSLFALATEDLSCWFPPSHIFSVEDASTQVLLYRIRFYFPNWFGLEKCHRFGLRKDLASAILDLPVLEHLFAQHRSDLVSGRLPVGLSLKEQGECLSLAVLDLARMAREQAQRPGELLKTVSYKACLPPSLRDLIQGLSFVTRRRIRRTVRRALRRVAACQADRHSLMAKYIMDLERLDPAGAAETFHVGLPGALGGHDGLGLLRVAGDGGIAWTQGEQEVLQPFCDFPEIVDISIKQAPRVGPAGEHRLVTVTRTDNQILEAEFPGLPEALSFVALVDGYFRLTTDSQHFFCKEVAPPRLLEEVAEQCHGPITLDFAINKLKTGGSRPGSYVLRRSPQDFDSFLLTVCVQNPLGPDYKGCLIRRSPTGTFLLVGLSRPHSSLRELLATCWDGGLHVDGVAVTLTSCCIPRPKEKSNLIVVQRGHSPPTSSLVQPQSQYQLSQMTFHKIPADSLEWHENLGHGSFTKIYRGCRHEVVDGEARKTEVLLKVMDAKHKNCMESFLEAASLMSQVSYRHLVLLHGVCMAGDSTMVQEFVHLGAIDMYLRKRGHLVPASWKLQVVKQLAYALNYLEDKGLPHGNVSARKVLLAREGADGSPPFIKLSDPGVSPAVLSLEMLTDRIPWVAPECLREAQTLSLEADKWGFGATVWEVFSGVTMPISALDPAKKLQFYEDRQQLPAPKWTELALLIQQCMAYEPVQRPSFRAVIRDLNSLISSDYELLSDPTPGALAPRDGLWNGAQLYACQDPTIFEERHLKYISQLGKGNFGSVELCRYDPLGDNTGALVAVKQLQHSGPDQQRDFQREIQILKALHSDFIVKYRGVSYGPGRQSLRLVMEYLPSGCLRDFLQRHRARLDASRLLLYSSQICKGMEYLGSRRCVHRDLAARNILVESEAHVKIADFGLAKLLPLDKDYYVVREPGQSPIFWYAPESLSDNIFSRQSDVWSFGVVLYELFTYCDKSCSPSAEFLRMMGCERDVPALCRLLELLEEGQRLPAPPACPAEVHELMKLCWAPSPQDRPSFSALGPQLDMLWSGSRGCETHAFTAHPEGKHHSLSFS

[31] = Cytotoxicity against HEK293 cells assessed as inhibition of cell proliferation incubated for 72 hrs by MTT assay; assay type: toxicity, cell-based; conditions: human
[32] = Cmax in Sprague-Dawley rat at 5 mg/kg, po or 5 mg/kg, iv measured after 24 hrs by LC-MS/MS analysis; assay type: ADME, organism-based; conditions: in vivo
4T1 = test: Anticancer activity against mouse 4T1 cells assessed as inhibition of cell proliferation incubated for 72 hrs by MTT assay; assay type: functional, cell-based; conditions: 4T1, 72 h
HGC-27 [33] = test: Induction of autophagy in human HGC-27 cells assessed as decrease in p62 protein expression incubated for 48 hrs by Western blot analysis; assay type: functional, cell-based; conditions: dose 5-15 µM

Chain of Tyrosine-protein kinase ITK/TSK (Q08881 whole entry): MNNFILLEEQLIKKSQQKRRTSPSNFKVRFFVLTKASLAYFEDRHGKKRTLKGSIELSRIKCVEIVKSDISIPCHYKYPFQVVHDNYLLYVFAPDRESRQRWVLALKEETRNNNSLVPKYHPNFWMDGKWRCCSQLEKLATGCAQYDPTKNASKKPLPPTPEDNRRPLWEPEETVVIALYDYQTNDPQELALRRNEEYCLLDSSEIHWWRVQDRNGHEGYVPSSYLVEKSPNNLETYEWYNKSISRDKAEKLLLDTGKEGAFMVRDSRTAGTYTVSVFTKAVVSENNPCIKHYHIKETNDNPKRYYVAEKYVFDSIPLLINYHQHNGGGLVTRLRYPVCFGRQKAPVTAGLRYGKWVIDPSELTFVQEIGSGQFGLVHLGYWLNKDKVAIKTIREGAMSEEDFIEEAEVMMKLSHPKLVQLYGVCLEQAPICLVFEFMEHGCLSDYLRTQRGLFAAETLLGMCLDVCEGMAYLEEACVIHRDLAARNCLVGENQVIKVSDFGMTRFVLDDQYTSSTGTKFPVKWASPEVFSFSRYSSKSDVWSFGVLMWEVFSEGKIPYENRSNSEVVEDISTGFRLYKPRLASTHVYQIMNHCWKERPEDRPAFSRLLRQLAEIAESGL

SMILES: C=CS(=O)(=O)N1CCC[C@@H](Nc2nc(N)nc(Nc3cccc(Oc4ccccc4)c3)n2)C1
- IC50 [1]: > 1 µM
- Activity (HGC-27 [2]): inactive
- bioavailability [3]: 6.6%
- IC50 (MGC-803 [4]): 15.2 µM
- inhibition (HGC-27 [5]): Active
- inhibition [6]: Active
- inhibition (MGC-803 [7]): Active
- IC50 (HepG2): > 32 µM
- IC50 [8]: > 1 µM
- Activity (HGC-27 [9]): Active
- IC50 at 72 h [10]: > 32 µM
- IC50 (DU-145): 10.4 µM
- IC50 (Cytochrome P450 2C9): 16.8 µM
- Activity (MGC-803 [11]): Active
- IC50 (HONE1 cell line): 15.7 µM
- Activity (MGC-803 [12]): Dose-dependent-effect
- Activity (HGC-27 [13]): Dose-dependent-effect
- Activity (MGC-803 [14]): Active
- Activity (HGC-27 [15]): Dose-dependent-effect
- Activity (MGC-803 [16]): Dose-dependent-effect
- IC50 [17]: 0.187 µM
- Activity (HGC-27 [18]): Active
- Activity (HGC-27 [19]): 49.93%
- IC50 (AGS): 8 µM
- Activity (HGC-27 [20]): Active
- Tmax [21]: 6 min
- Activity (HGC-27 [22]): Dose-dependent-effect
- Activity [23]: Non-toxic
- IC50 (NCI-H460): 16.7 µM
- Activity [24]: Non-toxic
- IC50 (HGC-27 [25]): 9.6 µM
- Activity (MGC-803 [26]): Active
- half-life [27]: 18.3 h
- Activity (MGC-803 [28]): Dose-dependent-effect
- IC50 [29]: 0.177 µM
- IC50 [30]: 0.437 µM
- IC50 at 72 h [31]: > 32 µM
- Cmax [32]: 73.5 ng/mL
- IC50 (4T1): 16.6 µM
- Activity (HGC-27 [33]): Dose-dependent-effect
